Reference: US11912695B2, “Benzodiazepine derivatives as RSV inhibitors” (ENANTA PHARMACEUTICALS, INC., priority 2019, dated 2024)

Legend:
[1] = test system: Human RSV-A (“Long” strain); test: RSV-A assay (CPE, ATPlite) in Hep-2 cells; assay type: cell-based; details: human respiratory syncytial virus, 120 h, MOI 0.1, 5-day incubation, ATPlite readout
Excerpt: Hep-2 cells, (originally derived from tumors grown in irradiated-cortisonised weanling rats that had been injected with epidermoid carcinoma tissue from a person's larynx, but later found to be indistinguishable from HeLa cells by PCR DNA analysis), were used for the culturing of genotype A, “Long” strain RSV. Flasks were inoculated with RSV and viral stocks were collected once cytopathic effect (CPE) was greater than 90%. Viral stocks in 25% sucrose media were snap frozen using liquid nitrogen to increase viral stability. Viral stock titers were quantified by tissue culture infectious dose 50% (TCID50) using 8,000 cells per well and 3-fold viral dilutions across a 96-well plate, cultured for 4 days. Viral stock titers were also quantified by a plaque forming unit assay, as described elsewhere.
Following extensive parameter testing, the final assay is run as follows: Hep-2 cells are seeded into the inner 60 wells of a 96-well plate at 8,000 cells per well in a volume of 50 μL using Growth Media (DMEM without phenol red, 1% L-Glut, 1% Penn/Strep, 1% nonessential amino acids, 10% heat-inactivated FBS). 2-fold serial dilutions of control and test compounds are added to the wells in duplicate in a total volume of 25 μL. Viral stock is then added to the wells at a multiplicity of infection (MOI) of 0.1 in a volume of 25 μL, bringing the total volume of each well to 100 μL. The MOI is calculated using the PFU/mL, or TCID50 if unavailable. Each 96-well plate has a control column of 6 wells with cells and virus but no compound (negative control, max CPE), a column with cells but no compound or virus (positive control, minimum CPE), and a column with no cells or virus or compound (background plate/reagent control). The control wells with cells but no virus are given an additional 25 μL of growth media containing an equal quantity of sucrose as those wells receiving the viral stock in order to keep consistent in media and volume conditions. The outer wells of the plate are filled with 125 μL of moat media (DMEM, 1% Penn/Strep) to act as a thermal and evaporative moat around the test wells. Following a 5-day incubation period, the plates are read using ATPlite (50 μL added per well), which quantifies the amount of ATP (a measure of cell health) present in each well. Assay plates are read using the Envision luminometer. In parallel, cytotoxicity is examined on an additional 96-well plate treated in an identical manner, but substituting the 25 μL of viral stock for 25 μL of growth media. […] EC50 ranges are as follows: A<0.4 μM; B 0.4-0.8 μM; C>0.8 μM.

[2] = test system: Human RSV-B (genotype B, strain 9320); test: RSV-B assay (qPCR or ATPlite) in A549 cells; assay type: cell-based; details: human respiratory syncytial virus, 144 h, strain 9320, MOI 0.5, 6 days post infection, qPCR or ATPlite readout
Excerpt: Hep-2 cells, (originally derived from tumors grown in irradiated-cortisonised weanling rats that had been injected with epidermoid carcinoma tissue from a person's larynx, but later found to be indistinguishable from HeLa cells by PCR DNA analysis), were used for the culturing of genotype B, strain 9320. Flasks were inoculated with RSV-B and viral stocks were collected once cytopathic effect (CPE) was greater than 90%. Viral stocks in 25% sucrose media were snap frozen using liquid nitrogen to increase viral stability. Viral stock titers were quantified by tissue culture infectious dose 50% (TCID50) using 8,000 cells per well and 5-fold viral dilutions across a 96-well plate, cultured for 4 days. Viral stock titers were also quantified by a plaque forming unit assay, as described elsewhere.
The assay is run as follows: A549 cells (originally derived through explant culture from a person's carcinomatous lung tissue) are seeded into the inner 60 wells of a 96-well plate at 3,000 cells per well in a volume of 50 μL using A549 growth media (F-12K Media, 1% Penn/Strep, 1% nonessential amino acids, 10% heat-inactivated FBS). 2-fold serial dilutions of control and test compounds are added to the wells in duplicate in a total volume of 25 μL. Viral stock is then added to the wells at a multiplicity of infection (MOI) of 0.5 in a volume of 25 μL, bringing the total volume of each well to 100 μL. The MOI is calculated using the PFU/mL, or TCID50 if unavailable. Each 96-well plate has a control column of 6 wells with cells and virus but no compound (negative control, max CPE), a column with cells but no compound or virus (positive control, minimum CPE), and a column with no cells or virus or compound (background plate/reagent control). The control wells with cells but no virus are given an additional 25 μL of growth media containing an equal quantity of sucrose as those wells receiving the viral stock in order to keep consistent in media and volume conditions. The outer wells of the plate are filled with 125 μL of moat media (DMEM, 1% Penn/Strep) to act as a thermal and evaporative moat around the test wells. 6 days post infection, the plates are read using qPCR or ATP lite (50 μL added per well), which quantifies the amount of ATP (a measure of cell health) present in each well. Assay plates treated with APTlite are read using the Envision luminometer. […] EC50 ranges are as follows: A<0.4 μM; B 0.4-0.8 μM; C>0.8 μM.

Compound | EC50 [1] | EC50 [2]
Cc1ncc(-c2cc(C(F)(F)F)cnc2-c2nnc(NC3N=C(c4ccccc4)c4ccccc4NC3=O)o2)cn1 (centres unmarked) [Example 1] | < 400 nM | < 400 nM
O=C1Nc2ccccc2C(c2ccccc2)=NC1Nc1nnc(-c2ncc(C(F)(F)F)cc2-c2cncnc2)o1 (centres unmarked) [Example 2] | > 800 nM | > 800 nM
COc1ncc(-c2cc(C(F)(F)F)cnc2-c2nnc(NC3N=C(c4ccccc4)c4ccccc4NC3=O)o2)cn1 (centres unmarked) [Example 3] | 400 to 800 nM | 400 to 800 nM
N#Cc1ncc(-c2cc(C(F)(F)F)cnc2-c2nnc(NC3N=C(c4ccccc4)c4ccccc4NC3=O)o2)cn1 (centres unmarked) [Example 5] | > 800 nM | 
O=C1Nc2ccccc2C(c2ccccc2)=NC1Nc1nnc(-c2ncc(C(F)(F)F)cc2-c2cnc(CF)nc2)o1 (centres unmarked) [Example 6] | < 400 nM | 
O=C1Nc2ccccc2C(c2ccccc2)=NC1Nc1nnc(-c2ncc(C(F)(F)F)cc2-c2cnc(C3CC3)nc2)o1 (centres unmarked) [Example 7] | < 400 nM | < 400 nM
CCc1ncc(-c2cc(C(F)(F)F)cnc2-c2nnc(NC3N=C(c4ccccc4)c4ccccc4NC3=O)o2)cn1 (centres unmarked) [Example 8] | < 400 nM | < 400 nM
O=C1Nc2ccccc2C(c2ccccc2)=NC1Nc1nnc(-c2ncc(C(F)(F)F)cc2-c2cnc(CO)nc2)o1 (centres unmarked) [Example 9] | > 800 nM | > 800 nM
O=C1Nc2ccccc2C(c2ccccc2)=NC1Nc1nnc(-c2ncc(C(F)(F)F)cc2-c2cnc(C(F)(F)F)nc2)o1 (centres unmarked) [Example 10] | > 800 nM | > 800 nM
CC(F)(F)c1ncc(-c2cc(C(F)(F)F)cnc2-c2nnc(NC3N=C(c4ccccc4)c4ccccc4NC3=O)o2)cn1 (centres unmarked) [Example 11] | > 800 nM | 400 to 800 nM
CC(C)(F)c1ncc(-c2cc(C(F)(F)F)cnc2-c2nnc(NC3N=C(c4ccccc4)c4ccccc4NC3=O)o2)cn1 (centres unmarked) [Example 12] | > 800 nM | > 800 nM
O=C1Nc2ccccc2C(c2ccccc2)=NC1Nc1nnc(-c2ncc(C(F)(F)F)cc2-c2cnc(C3CCC3)nc2)o1 (centres unmarked) [Example 13] | 400 to 800 nM | < 400 nM
O=C1Nc2ccccc2C(c2ccccc2)=NC1Nc1nnc(-c2ncc(C(F)(F)F)cc2-c2cnc(Cl)nc2)o1 (centres unmarked) [Example 14, 3-((5-(3-(2-chloropyrimidin-5-yl)-5-(trifluoromethyl)pyridin-2-yl)-1,3,4-oxadiazol-2-yl)amino)-5-phenyl-1,3-dihydro-2H-benzo[e][1,4]diazepin-2-one] | > 800 nM | > 800 nM
CCc1ncc(-c2cccnc2-c2nnc(NC3N=C(c4ccccc4)c4ccccc4NC3=O)o2)cn1 (centres unmarked) [Example 15] | > 800 nM | < 400 nM
O=C1Nc2ccccc2C(c2ccccc2)=NC1Nc1nnc(-c2ncccc2-c2cnc(C3CC3)nc2)o1 (centres unmarked) [Example 16] | 400 to 800 nM | < 400 nM
O=C1Nc2ccccc2C(c2ccccc2)=NC1Nc1nnc(-c2ncc(C(F)(F)F)cc2-c2cnc(F)nc2)o1 (centres unmarked) [Example 17] | > 800 nM | > 800 nM
C=Cc1ncc(-c2cc(C(F)(F)F)cnc2-c2nnc(NC3N=C(c4ccccc4)c4ccccc4NC3=O)o2)cn1 (centres unmarked) [Example 18] | 400 to 800 nM | < 400 nM
C#Cc1ncc(-c2cc(C(F)(F)F)cnc2-c2nnc(NC3N=C(c4ccccc4)c4ccccc4NC3=O)o2)cn1 (centres unmarked) [Example 19] | > 800 nM | 400 to 800 nM
O=C1Nc2ccccc2C(c2ccccc2)=NC1Nc1nnc(-c2ncc(C(F)(F)F)cc2-c2cnc(NC3CC3)nc2)o1 (centres unmarked) [Example 20] | 400 to 800 nM | < 400 nM

Compound | EC50 [1] | EC50 [2]
Cc1ncc(-c2nc(C(F)(F)F)ccc2-c2nnc(N[C@H]3N=C(c4ccccc4)c4ccccc4NC3=O)o2)cn1 [Example 21] | 400 to 800 nM | < 400 nM
O=C1Nc2ccccc2C(c2ccccc2)=N[C@@H]1Nc1nnc(-c2ccc(C(F)(F)F)nc2-c2cnc(C3CC3)nc2)o1 [Example 22] | 400 to 800 nM | < 400 nM
O=C1Nc2ccccc2C(c2ccccc2)=NC1Nc1nnc(-c2cccnc2-c2cnc(C3CC3)nc2)o1 (centres unmarked) [Example 23] | > 800 nM | < 400 nM
O=C1Nc2c(F)cccc2C(c2ccccc2)=N[C@@H]1Nc1nnc(-c2ncc(C(F)(F)F)cc2-c2cnc(C3CC3)nc2)o1 [Example 24] | < 400 nM | < 400 nM
O=C1Nc2ccccc2C(c2ccccc2)=N[C@@H]1Nc1nnc(-c2ncc(C(F)(F)F)cc2-c2cnc(C3CC3)nc2)o1 [Example 25] | < 400 nM | < 400 nM
Cc1ncc(-c2cc(C(F)(F)F)cnc2-c2nnc(N[C@H]3N=C(c4ccccc4)c4ccccc4NC3=O)o2)cn1 [Example 26] | < 400 nM | < 400 nM
Cc1ncc(-c2cc(C(F)(F)F)cnc2-c2nnc(N[C@H]3N=C(c4ccccc4)c4cccc(F)c4NC3=O)o2)cn1 [Example 27] | < 400 nM | < 400 nM
CCc1ncc(-c2cc(C(F)(F)F)cnc2-c2nnc(N[C@H]3N=C(c4ccccc4)c4cccc(F)c4NC3=O)o2)cn1 [Example 28] | < 400 nM | < 400 nM
CCc1ncc(-c2cc(C(F)(F)F)cnc2-c2nnc(N[C@H]3N=C(c4ccccc4)c4ccccc4NC3=O)o2)cn1 [Example 29] | < 400 nM | < 400 nM
CCc1ncc(-c2sc(C(F)(F)F)nc2-c2nnc(N[C@H]3N=C(c4ccccc4)c4cccc(F)c4NC3=O)o2)cn1 [Example 32] | < 400 nM | < 400 nM
Cc1ncc(-c2sc(C(F)(F)F)nc2-c2nnc(NC3N=C(c4ccccc4)c4ccccc4NC3=O)o2)cn1 (centres unmarked) [Example 33] | < 400 nM | < 400 nM
O=C1Nc2ccccc2C(c2ccccc2)=NC1Nc1nnc(-c2nc(C(F)(F)F)sc2-c2cnc(C3CC3)nc2)o1 (centres unmarked) [Example 34] | < 400 nM | < 400 nM
CCc1ncc(-c2sc(C(F)(F)F)nc2-c2nnc(NC3N=C(c4ccccc4)c4ccccc4NC3=O)o2)cn1 (centres unmarked) [Example 35] | < 400 nM | < 400 nM
CCc1ncc(-c2sc(C)nc2-c2nnc(N[C@H]3N=C(c4ccccc4)c4cccc(F)c4NC3=O)o2)cn1 [Example 36] | < 400 nM | < 400 nM
CCc1ncc(-c2sc(C)nc2-c2nnc(N[C@@H]3N=C(c4ccccc4)c4cccc(F)c4NC3=O)o2)cn1 [Example 37] | < 400 nM | < 400 nM
Cc1ncc(-c2sc(C)nc2-c2nnc(N[C@@H]3N=C(c4ccccc4)c4cccc(F)c4NC3=O)o2)cn1 [Example 38] | < 400 nM | < 400 nM
Cc1ncc(-c2sc(C)nc2-c2nnc(N[C@H]3N=C(c4ccccc4)c4cccc(F)c4NC3=O)o2)cn1 [Example 39] | < 400 nM | < 400 nM
Cc1nc(-c2nnc(N[C@@H]3N=C(c4ccccc4)c4cccc(F)c4NC3=O)o2)c(-c2cnc(C3CC3)nc2)s1 [Example 40] | < 400 nM | < 400 nM
Cc1nc(-c2nnc(N[C@H]3N=C(c4ccccc4)c4cccc(F)c4NC3=O)o2)c(-c2cnc(C3CC3)nc2)s1 [Example 41] | < 400 nM | < 400 nM
